≈ marks a conversion by molar mass, not a printed value.

Test [1] has as its system Acinetobacter baumannii NCTC 13420. Nature of the test: microbe, parasite or virus in culture. The format is cell-based. To be noted: NCTC13420.
Test [2] concerns human hepatic cell line (HepG2 ATCC HB-8065). The test can be described thus: cells. To be noted: HepG2, 24 h, read-out: IC50 (μg/mL) HepG2.
Test [3] has as its system Enterobacter cloacae NCTC 13406. Nature of the test: microbe, parasite or virus in culture. It counts as cell-based. The note with it: NCTC13406.
The test system of test [4] is Escherichia coli ATCC 25922. The test can be described thus: microbe, parasite or virus in culture. It counts as cell-based. To be noted: ATCC25922.
Test [5] has as its system Klebsiella pneumoniae ATCC 700603. The test can be described thus: microbe, parasite or virus in culture. It counts as cell-based. To be noted: ATCC700603.
Test [6] has as its system Staphylococcus aureus ATCC 29213. The test can be described thus: microbe, parasite or virus in culture. It counts as cell-based. To be noted: ATCC29213.
The test system of test [7] is Streptococcus pneumoniae ATCC 49619. The test can be described thus: microbe, parasite or virus in culture. The note with it: ATCC49619. It counts as cell-based.
Test [8] deals with Pseudomonas aeruginosa ATCC 27853. The test can be described thus: microbe, parasite or virus in culture. The format is cell-based. The note with it: ATCC27853.
Test [9] has as its system Haemophilus influenzae ATCC 49247. Nature of the test: microbe, parasite or virus in culture. The format is cell-based. The note with it: ATCC49247.
In test [10] the test system is Acinetobacter baumannii ATCC 19606. The test can be described thus: microbe, parasite or virus in culture. The format is cell-based. To be noted: ATCC19606.

`COc1ccc2ccc(=O)n(CCCN3CC[C@H]4[C@@H](C3)OC(=O)N4c3ccc4c(n3)NC(=O)CO4)c2n1` (relative stereo) [Compound 7, rel-1-{3-[(3aR*,7aS*)-2-oxo-1-{3-oxo-2H,3H,4H-pyrido[3,2-b][1,4]oxazin-6-yl}-octahydro-[1,3]oxazolo[5,4-c]pyridin-5-yl]propyl}-7-methoxy-1,2-dihydro-1,8-naphthyridin-2-one]: the MIC in test [1] is less than 1 µg/mL; in test [3], 1 to 10 µg/mL (≈ 1.97 to 19.7 µM); in test [4] it was less than 1 µg/mL; in [5], 10 to 100 µg/mL (≈ 19.7 to 197 µM); in [6] it was less than 1 µg/mL; in [7], less than 1 µg/mL. The MIC is 10 to 100 µg/mL (≈ 19.7 to 197 µM) in [8], less than 1 µg/mL in test [9] and less than 1 µg/mL in [10]. Besides, in [2], the IC50 fell in the range of 10 to 100 µg/mL (≈ 19.7 to 197 µM).

For the compound `COc1ccc2ccc(=O)n(CCCN3CC[C@@H]4[C@@H](C3)OC(=O)N4c3ccc4c(n3)NC(=O)CO4)c2n1` (relative stereo) [Compound 9, rel-1-{3-[(3aR*,7aR*)-2-oxo-1-{3-oxo-2H,3H,4H-pyrido[3,2-b][1,4]oxazin-6-yl}-octahydro-[1,3]oxazolo[5,4-c]pyridin-5-yl]propyl}-7-methoxy-1,2-dihydro-1,8-naphthyridin-2-one], the MIC in [1] was less than 1 µg/mL; in test [3] it was 1 to 10 µg/mL (≈ 1.97 to 19.7 µM); in [4], less than 1 µg/mL; in test [5] it was 10 to 100 µg/mL (≈ 19.7 to 197 µM); in [6] it was less than 1 µg/mL; in test [7], less than 1 µg/mL. For the same compound, the MIC in [8] is 1 to 10 µg/mL (≈ 1.97 to 19.7 µM); in test [9], less than 1 µg/mL; in test [10], less than 1 µg/mL. In [2], the IC50 lay in the range of 10 to 100 µg/mL (≈ 19.7 to 197 µM).

`N#Cc1ccc2ccc(=O)n(CCCN3CC[C@@H]4[C@H](C3)OC(=O)N4c3ccc4c(n3)NC(=O)CO4)c2c1` (relative stereo) [Compound 6, rel-1-{3-[(3aR*,7aS*)-2-oxo-1-{3-oxo-2H,3H,4H-pyrido[3,2-b][1,4]oxazin-6-yl}-octahydro-[1,3]oxazolo[5,4-c]pyridin-5-yl]propyl}-2-oxo-1,2-dihydroquinoline-7-carbonitrile]: the MIC was less than 1 µg/mL in test [1]; 1 to 10 µg/mL (≈ 2 to 20 µM) in test [3]; less than 1 µg/mL in test [4]; 10 to 100 µg/mL (≈ 20 to 200 µM) in test [5]; less than 1 µg/mL in test [6]; less than 1 µg/mL in test [7]. The figures for the MIC in test [8], in test [9] and in [10] were 10 to 100 µg/mL (≈ 20 to 200 µM), 1 to 10 µg/mL (≈ 2 to 20 µM) and 1 to 10 µg/mL (≈ 2 to 20 µM), respectively. Moreover, the IC50 in test [2] was 10 to 100 µg/mL (≈ 20 to 200 µM).

Regarding `N#Cc1ccc2ccc(=O)n(CCCN3CC[C@@H]4[C@@H](C3)OC(=O)N4c3ccc4c(n3)NC(=O)CO4)c2c1` (relative stereo) [Compound 10, rel-1-{3-[(3aR*,7aR*)-2-oxo-1-{3-oxo-2H,3H,4H-pyrido[3,2-b][1,4]oxazin-6-yl}-octahydro-[1,3]oxazolo[5,4-c]pyridin-5-yl]propyl}-2-oxo-1,2-dihydroquinoline-7-carbonitrile], the MIC in test [1] was less than 1 µg/mL; in test [3], 1 to 10 µg/mL (≈ 2 to 20 µM); in [4], less than 1 µg/mL; in [5], 10 to 100 µg/mL (≈ 20 to 200 µM); in [6] it was less than 1 µg/mL; in [7], less than 1 µg/mL. The figures for the MIC in [8], in [9] and in test [10] were 1 to 10 µg/mL (≈ 2 to 20 µM), less than 1 µg/mL and less than 1 µg/mL, respectively. Besides, the IC50 in test [2] is 10 to 100 µg/mL (≈ 20 to 200 µM).

In the case of `O=C1COc2ccc(N3C(=O)O[C@H]4CN(CCCn5c(=O)ccc6ccccc65)CC[C@H]43)nc2N1` (relative stereo) [Compound 2, rel-1-{3-[(3aR*,7aS*)-2-oxo-1-{3-oxo-2H,3H,4H-pyrido[3,2-b][1,4]oxazin-6-yl}-octahydro-[1,3]oxazolo[5,4-c]pyridin-5-yl]propyl}-1,2-dihydroquinolin-2-one], the MIC in test [1] was less than 1 µg/mL; in test [3], 10 to 100 µg/mL (≈ 21 to 210 µM); in [4], 1 to 10 µg/mL (≈ 2.1 to 21 µM); in test [5] it was 10 to 100 µg/mL (≈ 21 to 210 µM); in [6], less than 1 µg/mL; in test [7], less than 1 µg/mL. Also, the MIC in [8] was in the range of 10 to 100 µg/mL (≈ 21 to 210 µM); in [9], 1 to 10 µg/mL (≈ 2.1 to 21 µM); in test [10] it was 1 to 10 µg/mL (≈ 2.1 to 21 µM). In addition, the IC50 in test [2] fell in the range of 10 to 100 µg/mL (≈ 21 to 210 µM).
